The values below are quoted from earlier work in US10053407B2, “Crystalline cannabidivarin” (S&B Pharma, Inc., priority 2016, dated 2018).

In the data set the test system is epilepsy. As to conditions: animal studies; 50 and 100 mg/kg, delivered intra-peritoneally; cannabidivarin prepared by non-synthetic methods.

Regarding `C=C(C)[C@@H]1CCC(C)=C[C@H]1c1c(O)cc(CCC)cc1O` [cannabidivarin], the mortality entry is reported as “effective in reducing mortality”.
